Earlier results as cited in patent US20090155363A1, “METHODS FOR ORAL ADMINISTRATION OF ACTIVE DRUGS” (priority 2007, published 2009).

Details: drug mixed with foods such as applesauce or vegetable juice, relative to administration of a nizatidine capsule with water

reduction of bioavailability: 30 to 40%
Compound: CNC(=C[N+](=O)[O-])NCCSCc1csc(CN(C)C)n1 [nizatidine]
